Assay results reported in article PMC2248166, “Quantitative peptide binding motifs for 19 human and mouse MHC class I molecules derived using positional scanning combinatorial peptide libraries” (Immunome Research, 2008).

Experiments:
Type in all cases: binding
HLA B*5401 = HLA B*5401 (Homo sapiens, UniProt P01889, A329T/C349S/D138N/D201E/E176V/E187T/E204Q/E69G/I76V/K202T/L119W/R155S/R180L/S121T/S35A/S48A/V127L/V306I/V36M/Y140L)
HLA B*5101 = HLA B*5101 (Homo sapiens, UniProt P01889, A329T/A93T/A95T/C349S/D138N/D201E/D98Y/E187L/E204Q/E69T/G107R/I218V/K202T/L105A/L119W/N104I/Q94N/R106L/R155S/R180L/S101N/S121T/S35A/S48A/V306I/V36M/Y195H/Y91F)
HLA B*3501 = HLA B*3501 (Homo sapiens, UniProt P01889, A329T/A93T/A95T/C349S/D201E/D98Y/E176V/E187L/E204Q/E69T/I218V/K202T/L119I/Q94N/R155S/R180L/S121R/S35A/S48A/T118I/V127L/V306I/V36M/Y140S/Y91F)
H-2 K^d = H-2 K^d (Mus musculus, UniProt P01902)
HLA B*5301 = HLA B*5301 (Homo sapiens, UniProt P01889, A329T/A93T/A95T/C349S/D201E/D98Y/E176V/E187L/E204Q/E69T/G107R/I218V/K202T/L105A/L119I/N104I/Q94N/R106L/R155S/R180L/S101N/S121R/S35A/S48A/T118I/V127L/V306I/V36M/Y140S/Y91F)
H-2 D^b = H-2 D^b (Mus musculus, UniProt P01899)
HLA B*0801 = HLA B*0801 (Homo sapiens, UniProt P01889, A93T/A95T/D138N/E176V/E187T/K202T/Q94N/R180D/S35A/V36M/Y33D/Y91F); assay: biochemical
HLA A*3001 = HLA A*3001 (Homo sapiens, UniProt P04439, D140H/D185E/E176W/F33S/G80R/H175R/K168Q/R138E/R41S); assay: biochemical
HLA B*5801 = HLA B*5801 (Homo sapiens, UniProt P01889, A329T/C349S/D201E/D98Y/E176V/E187L/E204Q/E69T/G107R/I218V/I90N/K202T/L105A/L119I/N104I/N87E/Q89R/Q94S/R106L/R155S/R180L/R86G/S101N/S121R/S35A/S48A/T118I/V127L/V306I/V36M/Y140S/Y91M)
HLA B*1501 = HLA B*1501 (Homo sapiens, UniProt P01889, A329T/A93T/A95T/C349S/D201E/D98Y/E187L/E204Q/E69M/E70A/K202T/N87E/Q94N/R155S/R180W/S121R/S35A/S48A/V306I/V36M/Y140S/Y91S); assay: biochemical
H-2 K^k = H-2 K^k (Mus musculus, UniProt P04223)
HLA B*1503 = HLA B*1503 (Homo sapiens, UniProt P01889, A329T/A93T/A95T/C349S/D201E/D98Y/E187L/E204Q/K202T/N87E/Q94N/R155S/R180L/S121R/S35A/V306I/V36M/Y140S/Y91S); assay: biochemical
HLA A*6802 = HLA A*6802 (Homo sapiens, UniProt P04439, A269V/D140Y/D185E/E176V/E277Q/E87N/F33Y/G231S/I121R/I166T/I218V/L180W/L300P/L318F/N151K/P208A/P217A/Q86R/R138H/R169H/S129P/T345S/V36M)
HLA A*3201 = HLA A*3201 (Homo sapiens, UniProt P04439, A270S/D101S/D185E/E176V/E277Q/F133L/G103R/G107R/G231S/H175R/I121M/I218V/I322F/K168Q/L105A/L300P/L318F/M331R/P208A/P217A/Q94H/R106L/R138Q/S129P/T104I/T323A/T345S/V100E/V321M/V358M); assay: biochemical
HLA B*5802 = HLA B*5802 (Homo sapiens, UniProt P01889, A329T/C349S/D201E/D98Y/E176V/E187L/E204Q/E69T/G107R/I218V/I90N/K202T/L105A/N104I/N87E/Q89R/Q94S/R106L/R155S/R180L/R86G/S101N/S121W/S35A/S48A/V127L/V306I/V36M/Y140S/Y91M)
H-2 D^d = H-2 D^d (Mus musculus, UniProt P01900)
H-2 D^d, sequence (P01900 whole entry, looked up): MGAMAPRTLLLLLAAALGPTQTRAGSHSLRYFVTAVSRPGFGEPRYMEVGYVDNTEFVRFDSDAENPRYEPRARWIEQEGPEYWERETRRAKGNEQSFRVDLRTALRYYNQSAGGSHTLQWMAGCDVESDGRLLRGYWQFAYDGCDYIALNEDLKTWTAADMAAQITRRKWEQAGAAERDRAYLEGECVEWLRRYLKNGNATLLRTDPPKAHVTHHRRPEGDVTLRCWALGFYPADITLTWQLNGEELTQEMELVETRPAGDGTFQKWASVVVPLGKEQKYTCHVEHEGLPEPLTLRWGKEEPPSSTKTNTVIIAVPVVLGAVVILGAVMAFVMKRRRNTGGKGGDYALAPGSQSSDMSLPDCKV

H-2 D^b, sequence (P01887 21-119): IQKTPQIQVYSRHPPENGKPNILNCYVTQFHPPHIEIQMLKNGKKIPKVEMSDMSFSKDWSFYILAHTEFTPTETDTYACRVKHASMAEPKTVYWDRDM
H-2 D^b, sequence (P01899 25-362): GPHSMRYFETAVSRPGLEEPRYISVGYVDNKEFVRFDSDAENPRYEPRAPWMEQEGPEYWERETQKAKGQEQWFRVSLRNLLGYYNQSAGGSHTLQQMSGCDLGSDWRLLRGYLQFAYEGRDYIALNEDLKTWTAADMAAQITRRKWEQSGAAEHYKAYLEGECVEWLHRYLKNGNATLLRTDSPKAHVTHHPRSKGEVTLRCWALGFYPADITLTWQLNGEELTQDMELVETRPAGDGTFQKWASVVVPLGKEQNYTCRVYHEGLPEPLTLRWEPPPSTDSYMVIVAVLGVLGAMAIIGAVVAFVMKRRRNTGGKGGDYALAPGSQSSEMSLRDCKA
H-2 K^d, sequence (P01887 21-119): as the sequence (P01887 21-119) above
H-2 K^d, sequence (P01902 22-368): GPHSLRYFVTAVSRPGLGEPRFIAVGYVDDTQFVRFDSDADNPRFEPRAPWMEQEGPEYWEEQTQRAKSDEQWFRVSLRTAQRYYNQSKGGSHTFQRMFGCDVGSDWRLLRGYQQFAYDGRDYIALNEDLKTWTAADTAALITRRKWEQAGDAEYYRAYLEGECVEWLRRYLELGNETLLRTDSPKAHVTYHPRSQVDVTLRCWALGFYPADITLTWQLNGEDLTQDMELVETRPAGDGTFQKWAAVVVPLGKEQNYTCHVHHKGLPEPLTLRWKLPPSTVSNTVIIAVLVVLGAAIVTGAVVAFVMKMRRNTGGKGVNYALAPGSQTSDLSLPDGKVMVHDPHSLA
H-2 K^k, sequence (P01887 21-119): as the sequence (P01887 21-119) above
H-2 K^k, sequence (P04223 22-369): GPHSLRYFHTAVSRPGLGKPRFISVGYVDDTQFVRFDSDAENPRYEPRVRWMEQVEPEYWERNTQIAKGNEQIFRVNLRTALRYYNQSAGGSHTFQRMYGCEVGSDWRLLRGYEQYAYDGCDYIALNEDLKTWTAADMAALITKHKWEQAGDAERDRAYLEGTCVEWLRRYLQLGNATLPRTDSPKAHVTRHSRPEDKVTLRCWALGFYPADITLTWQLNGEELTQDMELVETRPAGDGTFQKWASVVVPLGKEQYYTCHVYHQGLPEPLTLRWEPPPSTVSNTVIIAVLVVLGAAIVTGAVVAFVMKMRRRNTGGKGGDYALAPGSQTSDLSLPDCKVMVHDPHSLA

| Sequence | Normalized average relative binding affinity(ARB) (HLA B*5401) | Normalized average relative binding affinity(ARB) (HLA B*5101) | Normalized average relative binding affinity(ARB) (HLA B*3501) | Normalized average relative binding affinity(ARB) (H-2 K^d) | Normalized average relative binding affinity(ARB) (HLA B*5301) | Normalized average relative binding affinity(ARB) (H-2 D^b) | Normalized average relative binding affinity(ARB) (HLA B*0801) | Normalized average relative binding affinity(ARB) (HLA A*3001) | Normalized average relative binding affinity(ARB) (HLA B*5801) | Normalized average relative binding affinity(ARB) (HLA B*1501) | Normalized average relative binding affinity(ARB) (H-2 K^k) | Normalized average relative binding affinity(ARB) (HLA B*1503) | Normalized average relative binding affinity(ARB) (HLA A*6802) | Normalized average relative binding affinity(ARB) (HLA A*3201) | Normalized average relative binding affinity(ARB) (HLA B*5802) | Normalized average relative binding affinity(ARB) (H-2 D^d) |
| --- | --- | --- | --- | --- | --- | --- | --- | --- | --- | --- | --- | --- | --- | --- | --- | --- |
| XXXXXXXFX [3064.0145] | 0.080 | 1.0 | 0.13 | 0.66 | 0.46 | 0.79 | 0.32 | 0.76 | 1.0 | 0.32 | 1.0 | 0.21 | 0.31 | 0.24 | 0.33 | 0.75 |
| XXXXXXXGX [3064.0146] | 0.083 | 0.20 | 0.098 | 0.63 | 0.094 | 0.043 | 0.099 | 0.18 | 0.21 | 0.15 | 0.32 | 0.18 | 0.31 | 0.54 | 0.87 | 0.62 |
| XXXXXXXHX [3064.0147] | 0.043 | 0.33 | 0.15 | 0.096 | 0.74 | 0.073 | 0.15 | 0.44 | 0.18 | 1.0 | 0.0052 | 0.84 | 0.046 | 0.49 | 0.26 | 0.11 |
| XXXXXXXIX [3064.0148] | 0.11 | 0.21 | 0.55 | 0.30 | 1.0 | 0.14 | 0.39 | 0.21 | 0.39 | 0.18 | 0.56 | 0.33 | 0.051 | 0.60 | 0.41 | 0.25 |
| XXXXXXXKX [3064.0149] | 0.099 | 0.20 | 0.36 | 0.23 | 0.78 | 0.076 | 0.14 | 0.12 | 0.14 | 0.24 | 0.13 | 0.085 | 0.12 | 0.24 | 0.15 | 0.24 |
| XXXXXXXLX [3064.0150] | 0.053 | 0.86 | 0.31 | 0.43 | 0.42 | 0.46 | 0.11 | 0.23 | 0.43 | 0.15 | 0.54 | 0.13 | 0.16 | 0.29 | 0.57 | 0.80 |
| XXXXXXXMX [3064.0151] | 0.045 | 0.32 | 0.28 | 0.43 | 0.33 | 0.17 | 0.24 | 0.14 | 0.18 | 0.061 | 0.49 | 0.14 | 0.16 | 0.52 | 0.32 | 0.47 |
| XXXXXXXNX [3064.0152] | 0.076 | 0.33 | 0.14 | 0.40 | 0.21 | 0.099 | 0.086 | 0.54 | 0.25 | 0.12 | 0.066 | 0.13 | 0.18 | 0.42 | 0.27 | 0.49 |
